Read-outs that look alike come from different tables or passages of the source.
Legend:
Assay type in all cases: in vivo
[1] = system: house fly (Musca domeestica); test: Test Example 3: treated filter paper with sucrose bait, house fly female adults, mortality; details: 24 h
Description: On the bottom of a polyethylene cup of 5.5 cm in diameter was placed a filter paper of the same size, to which a water dilution (500 ppm) of each of the formulations obtained from present compounds 1, 2, 3, 4, 5, 6, 7, 8, 9, 10, 11, 12, 13, 14, 15, 16, 17, 18, 19, 20, 21, 25, 26, 27, 28, 29, 32, 33, 34, 35, 36, 37, 38, 39, 40, 41, 42, 43, 44, 45, 47, 51, 52, 53, 54, 55, 60, and 61 according to Formulation Example 1 was added dropwise in an amount of 0.7 ml, and the cup was uniformly charged with about 30 mg of sucrose as a bait. Ten female adults of house fly (Musca domeestica) were set free in each cup, which was then kept covered. After 1 day, their survival was examined to determine the mortality.

[2] = system: German cockroach (Blattella germanica); test: Test Example 2: treated filter paper with sucrose bait, German cockroach male adults, mortality; details: 144 h
[3] = system: common mosquito (Culex pipiens pallens); test: Test Example 4: treated water, common mosquito final-instar larvae, mortality; details: 192 h

CSC(F)(F)C(N)=Nc1c([N+](=O)[O-])cc(C(F)(F)F)cc1[N+](=O)[O-] [present compound 51, N-(2,6-Dinitro-4-trifluoromethylphenyl)-2,2-difluoro-2-methylthioacetamidine]
100%: mortality at 500 µg/mL [1] | mortality at 500 µg/mL [2] | mortality at 3.5 ppm [3]

CN(C)C(=Nc1c(Cl)cc(C(F)(F)F)cc1Cl)C(F)(F)C(F)(F)F [present compound 53, N′-(2,6-Dichloro-4-trifluoromethylphenyl)-2,2,3,3,3-pentafluoro-N,N-dimethylpropionamidine]
100%: mortality at 500 µg/mL [1] | mortality at 500 µg/mL [2] | mortality at 3.5 ppm [3]

CN(C)C(=Nc1c(Cl)cc(C(F)(F)F)cc1Cl)C(F)(F)Cl [present compound 54, 2-Chloro-N′-(2,6-dichloro-4-trifluoromethylphenyl)-2,2-difluoro-N,N-dimethylacetamidine]
100%: mortality at 500 µg/mL [1] | mortality at 500 µg/mL [2] | mortality at 3.5 ppm [3]

CNC(=Nc1c(Cl)cc(C(F)(F)F)cc1Cl)C(F)(F)F [present compound 55, N′-(2,6-Dichloro-4-trifluoromethylphenyl)-2,2,2-trifluoro-N-methylacetamidine]
100%: mortality at 500 µg/mL [1] | mortality at 500 µg/mL [2] | mortality at 3.5 ppm [3]

COC(=O)NC(=Nc1c(Cl)cc(C(F)(F)F)cc1Cl)C(F)(F)C(F)(F)F [present compound 60, [1-(2,6-dichloro-4-trifluoromethylphenylimino)-2,2,3,3,3-pentafluoropropyl]carbamic acid methyl ester]
100%: mortality at 500 µg/mL ([1]; water dilution (500 ppm) of flowable (Formulation Example 1), 0.7 ml on filter paper, female adults, after 1 day, read-out: mortality) | mortality at 500 µg/mL ([2]; water dilution (500 ppm) of flowable (Formulation Example 1), 0.7 ml on filter paper, male adults, after 6 days, read-out: mortality) | mortality at 3.5 ppm ([3]; active ingredient 3.5 ppm in ion-exchanged water (0.7 ml of 500 ppm dilution), final-instar larvae, after 8 days, read-out: mortality)

CC(=O)NC(=Nc1c(Cl)cc(C(F)(F)F)cc1Cl)C(F)(F)C(F)(F)F [present compound 61, N-[1-(2,6-dichloro-4-trifluoromethylphenylimino)-2,2,3,3,3-pentafluoropropyl]-acetamide]
100%: mortality at 500 µg/mL [1] | mortality at 500 µg/mL [2] | mortality at 3.5 ppm [3]

Reference: patent US6376710B2, “Amidine compounds and their use as pesticides” (Sumitomo Chemical Co., Ltd., priority 2000, dated 2002)
